Source: patent publication US6407248B1, “α-unsaturated amines, their production and use” (Takeda Chemical Industries, Ltd., priority 1987, dated 2002)

What was measured:
[1] = system: Brown Planthoppers (Nilaparvata lugens); experiment: Effect against brown planthoppers (foliar spray on rice seedlings); assay type: in vivo; settings: Nilaparvata lugens, foliar, 168 h, read-out: % Mortality after 7 days
Method: Effect Against Brown Planthoppers (Nilaparvata lugens)
An emulsifiable concentrate of the compound of the invention, prepared in the same manner as Example 112 below, was diluted with water to a concentration of 500 ppm and sprayed over the stems and leaves of rice seedlings in the 2-leaf stage at the rate of 10 ml per paper pot. Water was put in test tubes and the treated rice seedlings were placed therein. Then, 10 brown planthopper larvae were released in each tube, which was then capped with an aluminum cap. The test tubes were maintained in an incubator at 25° C. and the dead insects were counted 7 days after release. The % mortality was calculated using the following formula. [formula]

melting point | Structure (SMILES) | mortality at 500 µg/mL [1] [%]
129 to 130 °C | CSC(=C[N+](=O)[O-])NCc1cccnc1 | –
141 to 143 °C | O=[N+]([O-])C=C(NCc1cccnc1)NCc1cccnc1 | –
177 to 178 °C (dec.) | NC(=C[N+](=O)[O-])NCc1cccnc1 | –
93 to 94 °C | CCCSCCNC(=C[N+](=O)[O-])NCc1cccnc1 | –
161 to 163 °C | O=[N+]([O-])C=C(NCCO)NCc1cccnc1 | –
96 to 98 °C | COC(CNC(=C[N+](=O)[O-])NCc1cccnc1)OC | –
164 to 165 °C | O=[N+]([O-])C=C(NCc1cccnc1)NCC(F)(F)F | –
102 to 103 °C | O=[N+]([O-])C=C(NCc1cccnc1)N1CCOCC1 | –
148 to 150 °C | CC(C)NC(=C[N+](=O)[O-])NCc1cccnc1 | –
110 to 112 °C | CCCCNC(=C[N+](=O)[O-])NCc1cccnc1 | –
97 to 98 °C | CCCCCNC(=C[N+](=O)[O-])NCc1cccnc1 | –
217 to 218 °C | O=[N+]([O-])C=C(NCc1cccnc1)Nc1ccccc1 | –
– | CN(C)C(=C[N+](=O)[O-])N(C=O)Cc1ccc(Br)nc1 [Compound 128, 1-[N-(6-Bromo-3-pyridylmethyl)-N-formyl]amino-1-dimethylamino-2-nitroethylene] | 100
– | CN(Cc1ccc(Br)nc1)C(N)=C[N+](=O)[O-] [Compound 129, 1-Amino-1-[N-(6-bromo-3-pyridylmethyl)-N-methyl]amino-2-nitroethylene] | 100
– | CN(C)C(=C[N+](=O)[O-])N(C=O)Cc1cnc(Cl)s1 [Compound 130, 1-[N-(2-Chloro-5-thiazolylmethyl)-N-formyl]amino-1-dimethylamino-2-nitroethylene] | 100
– | CNC(=C[N+](=O)[O-])N(Cc1ccc(Cl)nc1)CC(F)(F)F [Compound 131, 1-[N-(6-Chloro-3-pyridylmethyl)-N-(2,2,2-trifluoroethyl)]amino-1-methylamino-2-nitroethylene] | 100
